Experimental data from US12496309B2, “Method for treatment of pancreatitis” (NovMetaPharma Co., Ltd., priority 2020, dated 2025).
pIC50: −log10 of the molar value.

What was measured:
Single dose toxicity = conditions: in vivo, read-out: Single dose Tax, LD50
Description: Next, the inventors analyzed the toxicity of these compounds in vivo (Table 3). […]

Plasma stability h = assay type: in vitro ADME, human
[1] = MS (microsomal stability) h; assay type: in vitro ADME, human
[2] = MS (microsomal stability) m; assay type: in vitro ADME, mouse
Plasma stability r = assay type: in vitro ADME, rat
PK = assay type: in vivo; conditions: for Cmax / PK BA % / clearance / half-life / Vd: in vivo; for clearance: read-out: PK CL; for half-life: read-out: PK T½ (converted); for Vd: read-out: PK Vss
Water solubility = assay type: physicochemical
[3] = test system: Caerulein-induced acute pancreatitis; experiment: Caerulein-induced model of acute pancreatitis; assay type: in vivo, mouse; conditions: 20 mg/kg
Method: (§1) • Materials: Caerulein (C9026) and Taurolithocholic acid 3-sulfate disodium salt (TLCS; T0512) was purchased from Sigma. • Animal models: Eight to ten-week male C57BL/6 mice (Jackson Lab) were used according to an animal protocol approved by the Institutional Animal Care and Use Committee of Kyungpook National University. 1. Caerulein-Induced Model of Pancreatitis
Acute pancreatitis (AP) was induced by intraperitoneal injections of caerulein at 50 μg/kg/h given 6 times.
(§2) Upon completion of experiments with above-mentioned animal models (1) and (2), pancreas tissue were snap frozen in liquid nitrogen and stored at −80° C. for analysis of trypsin activity, for protein analysis by Western blots and for gene expression analysis by RT-qPCR. Pancreas were dissected and fixed in 10% neutral-buffered formalin and embedded in paraffin. Five-μm sections were prepared and stained with hematoxylin and eosin (H&E). Pancreas injury was determined by measuring serum amylase (K711-100, Biovision), serum lipase (MAK046, Sigma) and pancreatic tissue trypsin activity (Biovision) was determined using commercially available kit.
Next, the inventors analyzed the efficacy of the compound of Chemical Formula 1 in vivo using two different animal models of acute pancreatitis. […] They pretreated mice with a single dose of compound of Chemical Formula 1, 24 hours prior to Caerulein challenge. An additional dose of compound of Chemical Formula 1 was administered to the animals at the beginning of Caerulein challenge. Upon completion of the experimental timeline, these animals were sacrificed and serum and pancreas tissue samples were collected and analyzed.

CYP = CYP inhibition, all isoforms; assay type: in vitro ADME
[4] = test system: TLCS-induced acute pancreatitis; experiment: Intraductal bile acid (TLCS) infusion model of pancreatitis; assay type: in vivo, mouse; conditions: 20 mg/kg
Description: as §1, §2
Upon completion of the experimental timeline, these animals were sacrificed and serum and pancreas tissue samples were collected and analyzed.

Permeability (PAMPA) = assay type: in vitro ADME; conditions: for Papp: PAMPA
[5] = MS (microsomal stability) d; assay type: in vitro ADME, dog
ERRγ [6] = molecular target: T1, ERRγ (Homo sapiens, UniProt P62508); experiment: ERRγ functional assay; assay type: biochemical
T1 sequence (P62508 1-458): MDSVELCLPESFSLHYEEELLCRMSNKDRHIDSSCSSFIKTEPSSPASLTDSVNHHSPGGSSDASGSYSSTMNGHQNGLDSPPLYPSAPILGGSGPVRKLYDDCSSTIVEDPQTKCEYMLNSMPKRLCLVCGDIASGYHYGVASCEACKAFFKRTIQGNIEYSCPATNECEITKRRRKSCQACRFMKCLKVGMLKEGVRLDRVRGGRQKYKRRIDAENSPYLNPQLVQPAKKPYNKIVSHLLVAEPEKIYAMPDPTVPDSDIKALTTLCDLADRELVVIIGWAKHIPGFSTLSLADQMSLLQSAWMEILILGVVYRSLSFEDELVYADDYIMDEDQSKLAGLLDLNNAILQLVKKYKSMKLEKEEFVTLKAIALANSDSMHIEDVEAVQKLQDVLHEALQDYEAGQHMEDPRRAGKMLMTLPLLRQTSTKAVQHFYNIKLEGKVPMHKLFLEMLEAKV

[7] = MS (microsomal stability) r; assay type: in vitro ADME, rat
hERG [8] = molecular target: T2, hERG (Homo sapiens, UniProt Q12809); experiment: hERG current; assay type: cell-based
T2 sequence (Q12809 whole entry): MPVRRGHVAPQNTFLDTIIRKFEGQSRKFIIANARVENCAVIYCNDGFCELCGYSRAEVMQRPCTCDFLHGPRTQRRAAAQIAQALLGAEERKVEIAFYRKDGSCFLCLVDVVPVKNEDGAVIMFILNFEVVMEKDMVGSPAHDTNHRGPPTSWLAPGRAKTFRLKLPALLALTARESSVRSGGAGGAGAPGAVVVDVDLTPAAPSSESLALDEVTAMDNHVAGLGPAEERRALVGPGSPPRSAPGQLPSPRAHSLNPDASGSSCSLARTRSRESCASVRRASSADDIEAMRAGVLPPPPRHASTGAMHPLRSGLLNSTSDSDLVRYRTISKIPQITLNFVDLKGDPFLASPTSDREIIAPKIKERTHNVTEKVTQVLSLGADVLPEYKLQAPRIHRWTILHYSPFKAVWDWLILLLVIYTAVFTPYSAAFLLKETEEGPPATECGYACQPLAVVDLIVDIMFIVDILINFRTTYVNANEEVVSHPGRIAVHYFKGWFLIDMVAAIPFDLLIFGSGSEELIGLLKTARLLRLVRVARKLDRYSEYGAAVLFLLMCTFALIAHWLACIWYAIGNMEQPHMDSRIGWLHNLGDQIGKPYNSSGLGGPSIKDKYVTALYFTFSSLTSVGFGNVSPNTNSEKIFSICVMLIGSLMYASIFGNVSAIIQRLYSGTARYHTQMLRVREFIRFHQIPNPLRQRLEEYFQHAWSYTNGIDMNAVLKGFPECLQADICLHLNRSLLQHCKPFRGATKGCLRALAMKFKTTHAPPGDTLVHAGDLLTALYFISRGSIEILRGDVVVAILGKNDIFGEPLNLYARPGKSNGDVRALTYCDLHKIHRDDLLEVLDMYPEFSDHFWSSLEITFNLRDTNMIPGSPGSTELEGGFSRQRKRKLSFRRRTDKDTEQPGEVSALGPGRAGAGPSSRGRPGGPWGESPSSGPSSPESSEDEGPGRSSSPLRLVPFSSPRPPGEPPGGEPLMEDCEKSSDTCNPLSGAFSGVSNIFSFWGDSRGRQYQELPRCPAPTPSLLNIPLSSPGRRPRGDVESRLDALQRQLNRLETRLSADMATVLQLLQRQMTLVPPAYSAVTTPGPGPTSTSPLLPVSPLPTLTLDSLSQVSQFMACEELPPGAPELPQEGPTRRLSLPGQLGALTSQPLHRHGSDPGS

ERRγ [9] = molecular target: T1, ERRγ; experiment: ERRγ binding
hERG [10] = molecular target: T2, hERG; experiment: hERG binding
ERRα = ERRα (Homo sapiens, UniProt P11474); experiment: ERRα binding selectivity
Chain of ERRα (P11474 whole entry): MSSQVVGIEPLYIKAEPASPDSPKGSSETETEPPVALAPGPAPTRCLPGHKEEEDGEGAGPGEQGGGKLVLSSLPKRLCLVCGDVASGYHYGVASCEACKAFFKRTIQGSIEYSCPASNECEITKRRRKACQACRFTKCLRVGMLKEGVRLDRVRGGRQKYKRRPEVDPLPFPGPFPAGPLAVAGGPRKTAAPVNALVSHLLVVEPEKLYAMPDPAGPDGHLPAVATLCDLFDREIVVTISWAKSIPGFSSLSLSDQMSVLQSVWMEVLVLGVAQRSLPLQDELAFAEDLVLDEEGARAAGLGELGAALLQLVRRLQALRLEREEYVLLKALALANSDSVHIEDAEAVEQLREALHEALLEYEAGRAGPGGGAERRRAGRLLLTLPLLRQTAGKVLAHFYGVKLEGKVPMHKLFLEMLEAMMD

ERα = ERα (Homo sapiens, UniProt P03372); experiment: ERα binding selectivity
Chain of ERα (P03372 whole entry): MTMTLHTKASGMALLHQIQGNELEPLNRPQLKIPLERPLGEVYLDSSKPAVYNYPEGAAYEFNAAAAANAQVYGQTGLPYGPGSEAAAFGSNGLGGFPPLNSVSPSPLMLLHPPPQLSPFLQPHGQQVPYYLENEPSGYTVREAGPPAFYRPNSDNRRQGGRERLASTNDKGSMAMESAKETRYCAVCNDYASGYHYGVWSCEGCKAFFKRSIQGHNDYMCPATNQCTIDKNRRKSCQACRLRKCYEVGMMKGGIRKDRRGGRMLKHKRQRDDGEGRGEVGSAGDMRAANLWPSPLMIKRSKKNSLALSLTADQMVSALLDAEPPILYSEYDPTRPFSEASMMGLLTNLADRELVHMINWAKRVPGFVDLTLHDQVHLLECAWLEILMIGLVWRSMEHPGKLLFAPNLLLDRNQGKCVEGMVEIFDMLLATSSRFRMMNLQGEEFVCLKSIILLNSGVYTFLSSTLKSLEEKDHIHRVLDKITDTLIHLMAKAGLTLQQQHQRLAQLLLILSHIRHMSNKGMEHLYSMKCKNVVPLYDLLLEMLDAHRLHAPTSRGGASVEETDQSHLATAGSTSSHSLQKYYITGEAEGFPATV

CYP 3A4 = CYP 3A4 (Homo sapiens, UniProt P08684); experiment: CYP inhibition 3A4; assay type: in vitro ADME
Chain of CYP 3A4 (P08684 whole entry): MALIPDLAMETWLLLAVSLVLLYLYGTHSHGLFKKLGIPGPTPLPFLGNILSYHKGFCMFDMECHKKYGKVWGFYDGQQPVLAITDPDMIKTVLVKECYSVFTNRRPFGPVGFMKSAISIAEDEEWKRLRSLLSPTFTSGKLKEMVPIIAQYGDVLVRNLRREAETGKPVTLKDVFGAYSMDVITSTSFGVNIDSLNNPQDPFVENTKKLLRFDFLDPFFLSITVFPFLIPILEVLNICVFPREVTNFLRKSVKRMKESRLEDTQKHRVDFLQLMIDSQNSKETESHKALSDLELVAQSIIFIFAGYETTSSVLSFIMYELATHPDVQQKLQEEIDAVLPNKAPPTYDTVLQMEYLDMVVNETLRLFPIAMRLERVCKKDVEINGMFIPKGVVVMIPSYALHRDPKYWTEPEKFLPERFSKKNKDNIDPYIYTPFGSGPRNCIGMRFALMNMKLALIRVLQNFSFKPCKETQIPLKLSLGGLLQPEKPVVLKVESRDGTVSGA

CYP 1A2 = CYP 1A2 (Homo sapiens, UniProt P05177); experiment: CYP inhibition 1A2; assay type: in vitro ADME
Chain of CYP 1A2 (P05177 whole entry): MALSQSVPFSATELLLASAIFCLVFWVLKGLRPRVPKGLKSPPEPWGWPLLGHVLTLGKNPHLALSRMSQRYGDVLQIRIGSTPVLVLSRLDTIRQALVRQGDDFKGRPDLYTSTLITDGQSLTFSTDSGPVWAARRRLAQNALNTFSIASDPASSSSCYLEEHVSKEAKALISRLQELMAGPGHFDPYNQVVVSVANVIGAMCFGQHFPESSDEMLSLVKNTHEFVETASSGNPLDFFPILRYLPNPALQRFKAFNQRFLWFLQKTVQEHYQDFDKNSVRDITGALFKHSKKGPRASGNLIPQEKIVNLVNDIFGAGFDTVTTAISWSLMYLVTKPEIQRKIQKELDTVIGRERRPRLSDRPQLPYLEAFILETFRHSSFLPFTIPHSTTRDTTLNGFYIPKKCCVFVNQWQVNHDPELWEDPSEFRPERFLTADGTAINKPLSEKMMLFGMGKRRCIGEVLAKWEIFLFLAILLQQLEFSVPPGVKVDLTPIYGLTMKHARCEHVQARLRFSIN

CYP 2C9 = CYP 2C9 (Homo sapiens, UniProt P11712); experiment: CYP inhibition 2C9; assay type: in vitro ADME
Chain of CYP 2C9 (P11712 whole entry): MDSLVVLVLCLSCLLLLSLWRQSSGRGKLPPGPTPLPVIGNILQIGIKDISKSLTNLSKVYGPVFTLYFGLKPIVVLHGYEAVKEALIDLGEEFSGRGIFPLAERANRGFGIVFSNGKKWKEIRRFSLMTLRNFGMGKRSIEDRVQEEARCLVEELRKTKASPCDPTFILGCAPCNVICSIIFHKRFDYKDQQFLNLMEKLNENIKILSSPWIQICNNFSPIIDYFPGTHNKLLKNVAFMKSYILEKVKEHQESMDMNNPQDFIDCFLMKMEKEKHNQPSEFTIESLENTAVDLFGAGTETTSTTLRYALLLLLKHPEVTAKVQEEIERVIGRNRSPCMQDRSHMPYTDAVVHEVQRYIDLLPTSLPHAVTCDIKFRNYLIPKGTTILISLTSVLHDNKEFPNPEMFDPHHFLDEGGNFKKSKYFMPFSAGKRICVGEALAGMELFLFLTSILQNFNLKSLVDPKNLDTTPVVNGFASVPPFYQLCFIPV

CYP 2D6 = CYP 2D6 (Homo sapiens, UniProt P10635); experiment: CYP inhibition 2D6; assay type: in vitro ADME
Chain of CYP 2D6 (P10635 whole entry): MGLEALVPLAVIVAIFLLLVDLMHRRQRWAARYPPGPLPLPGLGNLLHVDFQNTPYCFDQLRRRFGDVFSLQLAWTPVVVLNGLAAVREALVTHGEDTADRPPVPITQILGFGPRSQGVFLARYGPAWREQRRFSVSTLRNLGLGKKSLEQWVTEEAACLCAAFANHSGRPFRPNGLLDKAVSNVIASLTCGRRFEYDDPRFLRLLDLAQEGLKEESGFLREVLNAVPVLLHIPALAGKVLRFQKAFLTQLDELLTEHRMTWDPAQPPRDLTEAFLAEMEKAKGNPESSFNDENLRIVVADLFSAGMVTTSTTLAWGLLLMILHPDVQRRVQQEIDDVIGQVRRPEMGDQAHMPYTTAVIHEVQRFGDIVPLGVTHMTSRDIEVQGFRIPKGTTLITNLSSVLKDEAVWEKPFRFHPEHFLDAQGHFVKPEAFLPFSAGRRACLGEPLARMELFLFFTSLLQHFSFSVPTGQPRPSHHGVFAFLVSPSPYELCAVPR

CYP 2C19 = CYP 2C19 (Homo sapiens, UniProt P33261); experiment: CYP inhibition 2C19; assay type: in vitro ADME
Chain of CYP 2C19 (P33261 whole entry): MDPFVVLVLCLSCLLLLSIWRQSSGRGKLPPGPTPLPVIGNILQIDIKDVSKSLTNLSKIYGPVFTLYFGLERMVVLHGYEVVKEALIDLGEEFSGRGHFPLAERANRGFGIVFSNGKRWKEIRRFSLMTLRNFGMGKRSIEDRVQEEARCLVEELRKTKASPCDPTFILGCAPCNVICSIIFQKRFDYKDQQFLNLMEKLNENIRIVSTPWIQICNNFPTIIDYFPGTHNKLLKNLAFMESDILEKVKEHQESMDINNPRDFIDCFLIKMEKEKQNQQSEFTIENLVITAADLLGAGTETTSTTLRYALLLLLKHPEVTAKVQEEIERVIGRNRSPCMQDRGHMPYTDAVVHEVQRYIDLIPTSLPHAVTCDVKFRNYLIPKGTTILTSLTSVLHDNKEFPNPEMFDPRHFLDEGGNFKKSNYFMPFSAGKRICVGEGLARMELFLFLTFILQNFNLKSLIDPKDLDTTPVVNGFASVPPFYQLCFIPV

Compound	LD50 (Single dose toxicity) [mg/kg]	MS (% of control) h [1]	MS (% of control) m [2]	Cmax (PK) [nM]	PK BA % (PK) [%]	clearance (PK) [mL/min/kg]	half-life (PK) [h]	Vd (PK) [L/kg]	PK iv AUC (PK) [μMh]	PK po AUC (PK) [μMh]	solubility (Water solubility) [µg/mL]	CYP (% remaining at 10 μM), All (CYP)	Papp (Permeability (PAMPA)) [×10⁻⁶ cm/s]	MS (% of control) d [5]	MS (% of control) r [7]	pIC50 (hERG [8])	pIC50 (hERG [10])	further results
CC(C)N1CCN(c2ccc(/C(=C(/CCCO)c3ccccc3)c3ccc(O)cc3)cc2)CC1 [DMRC200434, (E)-5-(4-hydroxyphenyl)-5-(4-(4-isopropylpiperazin-1-yl)phenyl)-4-phenylpent-4-en-1-ol]	> 2000	27 % of control	20 % of control	208	22	75	3.7	16	0.42	0.82	> 1000	OK All >64%	0.46	50 % of control	33 % of control	4.67	< 5.00	Plasma Stability (% of remaining after 2 h) h (Plasma stability h): 92.1%; Plasma Stability (% of remaining after 2 h) r (Plasma stability r): 97.1%; Caerulein-induced acute pancreatitis, overall outcome [3]: rescues mice; Serum amylase ([3]; 24 h before and at start of Caerulein, vs Caerulein alone): dramatic reduction; Pancreatic histopathology (H&E) ([3]; vs Caerulein alone): dramatically improved; Pancreatic tissue trypsin activity ([3]; vs Caerulein alone): dramatic reduction; Serum lipase ([3]; vs Caerulein alone): dramatic reduction; Sodium Taurocholate-induced acute pancreatitis, overall outcome [4]: rescues mice; pIC50 (ERRγ [6]): 8.22; pIC50 (ERRγ [9]): 7.40
OCCC/C(=C(\c1ccc(O)cc1)c1ccc(C2CCN(C3CC3)CC2)cc1)c1ccccc1 [DMRC200699, (E)-5-(4-hydroxyphenyl)-5-(4-(N-cyclopropylpiperidin-4-yl)phenyl)-4-phenylpent-4-en-1-ol]			84 % of control	380	46	68	3	12	0.50	2.24	> 1000		0.35	92 % of control	92 % of control			
OCCC/C(=C(/c1ccc(C2CCN(C3CC3)CC2)cc1)c1cccc(O)c1)c1ccccc1 [DMRC200966, (E)-5-(5-hydroxyphenyl)-5-(4-(N-cyclopropylpiperidin-4-yl)phenyl)-4-phenylpent-4-en-1-ol]		62 % of control	25 % of control	1510	58.2	45	1.8	4.6	0.85	4.93	> 1000	OK All >83%	0.014	57 % of control	50 % of control	< 4.52	4.77	pIC50 (ERRα): < 5.00; pIC50 (ERα): < 5.00
CC(C)N1CCN(c2ccc(/C(=C(/CCCO)c3ccccc3)c3cccc(O)c3)cc2)CC1 [DMRC2001000, (E)-5-(5-hydroxyphenyl)-5-(4-(4-isopropylpiperazin-1-yl)phenyl)-4-phenylpent-4-en-1-ol]	> 2000	65 % of control	27 % of control						0.99	4.18	> 1000			61 % of control	55 % of control			CYP (% remaining at 10 μM) 3A4 (CYP 3A4): 3A4(48) %; CYP (% remaining at 10 μM) 1A2 (CYP 1A2): 100%; Permeability (PAMPA) (Permeability (PAMPA)): 1.29 10^−6 cm/s; CYP (% remaining at 10 μM) 2C9 (CYP 2C9): 76%; CYP (% remaining at 10 μM) 2D6 (CYP 2D6): 66%; CYP (% remaining at 10 μM) 2C19 (CYP 2C19): 100%
CN(C)CCOc1ccc(/C(=C(/CCCO)c2ccccc2)c2ccc(O)cc2)cc1 [GSK5182, reference compound]		43 % of control	7 % of control		8.4	44			0.89	0.68	> 1000	OK All >73%		10 % of control	26 % of control			
